Laboratory results taken from ChEMBL document CHEMBL1147396, “A new antimalarial quassinoid from Simaba guianensis” (J Nat Prod, 1993).
≈ marks a conversion by molar mass, not a printed value.

Assays:
Plasmodium falciparum [1] = test: Antimalarial activity against mefloquine-resistant Plasmodium falciparum D6 (Sierra Leone) after 24 to 60 hrs by [G-H3]hypoxanthine uptake; assay type: functional, organism-based
Plasmodium falciparum [2] = test: Antimalarial activity against chloroquine-resistant Plasmodium falciparum Indochina W2 after 24 to 60 hrs by [G-H3]hypoxanthine uptake; assay type: functional, organism-based

Row | Structure (SMILES) | IC50 (Plasmodium falciparum [1]) | IC50 (Plasmodium falciparum [2])
1 | CC[C@@H](C)C(=O)O[C@H]1C(=O)O[C@@H]2C[C@H]3C(C)=CC(=O)[C@@H](O)[C@]3(C)[C@H]3[C@@H](O)[C@H](O)[C@]4(C)OC[C@]32[C@@H]14 [SIMALIKALACTONE D] | 1.5 ng/mL (≈ 3.13 nM) | 1.6 ng/mL (≈ 3.34 nM)
2 | CC(C)=CC(=O)O[C@H]1C(=O)O[C@@H]2C[C@H]3C(C)=CC(=O)[C@@H](O)[C@]3(C)[C@H]3[C@@H](O)[C@H](O)[C@]4(C)OC[C@]32[C@@H]14 [GUTOLACTONE] | 4.1 ng/mL (≈ 8.6 nM) | 4 ng/mL (≈ 8.39 nM)
3 | C=C[C@H]1CN2CC[C@H]1C[C@H]2[C@H](O)c1ccnc2ccc(OC)cc12 [QUININE] |  | 68.6 ng/mL (≈ 211 nM)
4 | OC(c1cc(C(F)(F)F)nc2c(C(F)(F)F)cccc12)C1CCCCN1 (configuration not stated) [MEFLOQUINE] |  | 1.5 ng/mL (≈ 3.96 nM)
5 | C[C@@H]1CC[C@H]2[C@@H](C)C(=O)O[C@@H]3O[C@@]4(C)CC[C@@H]1[C@]32OO4 [ARTEMISININ] | 2.1 ng/mL (≈ 7.44 nM) | 
